Assay results: PMC10135050, “Neutralizing Carbapenem Resistance by Co-Administering Meropenem with Novel β-Lactam-Metallo-β-Lactamase Inhibitors” (Antibiotics, 2023)
One block for each compound: values may come before it.

Key:
[1] = parameters: method as in PMID 32179522; conditions: cited from earlier work
[2] = target: T1, Recombinant human glyoxylase II (Glo2) (Homo sapiens, UniProt Q16775); test: Non-specific binding to zinc in non-MBLs, glyoxylase II activity; format: biochemical; conditions: 50–500 µM
T1 construct: purchased BioVision Inc., Waltham, MA, USA
Source text: Metal chelators are known to suffer from off-target specificity and as a result have been criticized as potential MBLIs in vivo [44].
The methodology has been previously described. EDTA (purchased from Merck KGaA, Darmstadt, Germany) was included as a positive control.

[3] = in vivo; cited from earlier work
[4] = parameters: method as in PMID 26849010, PMID 32903882; conditions: cited from earlier work

SMILES: COC(=O)C(CC(=O)N[C@@H]1C(=O)N2C(C(=O)O)=C(C[n+]3ccccc3)CS[C@H]12)N1CCN(CC(=O)O)CCN(CC(=O)O)CC1 (some centres unmarked) [BP1]
- Decrease in the bacterial load in vivo [1]: approximately 3 log10 units

- Glyoxylase II activity [2]: significantly reduced
SMILES: O=C(O)CN(CCN(CC(=O)O)CC(=O)O)CC(=O)O [EDTA, reference compound]

SMILES: O=C(O)CN1CCN(CC(=O)O)CCN(CC(=O)O)CC1 [NOTA]
- Bioavailability [3]: poor bioavailability

SMILES: c1ccc(CN(CCN(Cc2ccccn2)Cc2ccccn2)Cc2ccccn2)nc1 [TPEN, N,N,N′,N′-Tetrakis (2-Pyridylmethyl) Ethylenediamine]
- Cytotoxicity [4]: cytotoxicity

SMILES: CN(C[C@H](O)[C@@H](O)[C@H](O)[C@H](O)CO)C(=O)c1ccc(CN(Cc2ccccn2)Cc2ccccn2)nc1 [ZN148]
- Decrease in the bacterial load in vivo [1]: approximately 3 log10 units
